Earlier results in US10898467B2, “Veterinary formulations” (BOEHRINGER INGELHEIM ANIMAL HEALTH USA INC., priority 2015, dated 2021).

Conditions: beagle dogs, spot-on, 14C radiolabeled drug

For `N#Cc1nn(-c2c(Cl)cc(C(F)(F)F)cc2Cl)c(N)c1[S+]([O-])C(F)(F)F` (stereo not shown) [fipronil, 1-(2,6-Cl2-4-CF3phenyl)-3-CN-4-(SO—CF3)-5-NH2pyrazole], the “Time for which fipronil was persistently detected in the whole skin after treatment” value is listed as “up to 56 days”.
